Patent US4229436A, “Antibiotic G-6302” (Takeda Chemical Industries, Ltd., priority 1977, dated 1980)
≈ marks a conversion by molar mass, not a printed value.

Legend:
Solubility in solvents = assay type: physicochemical
[1] = Acute toxicity in mice, intravenous
[2] = tested on: Salmonella typhosa Boxhill 58; assay: Antimicrobial spectrum, agar plate dilution method; assay type: cell-based; details: Salmonella enterica, read-out: Minimal inhibitory concentration
Description: (§1) The biological characteristics of G-6302 are as follows. The antimicrobial spectra of G-6302 and its sodium salt against various microorganisms are shown in Table 3 (agar plate dilution method.)
(§2) Medium = Trypticasesoy-broth-agar

[3] = mouse, in vivo
[4] = Stability in aqueous solution; assay type: physicochemical
Klebsiella pneumoniae = assay: Protection of mice infected with Klebsiella pneumoniae; assay type: in vivo
[5] = tested on: Penicillium chrysogenum IFO 4626; assay: Antimicrobial spectrum, agar plate dilution method; assay type: cell-based; details: IFO4626, Nutrient agar containing 1% of glucose, read-out: Minimal inhibitory concentration
Description: as §1
(§3) *Medium = Nutrient agar containing 1% of glucose

[6] = tested on: Saccharomyces cerevisiae IFO 0209; assay: Antimicrobial spectrum, agar plate dilution method; assay type: cell-based; details: IFO0209, Nutrient agar containing 1% of glucose, read-out: Minimal inhibitory concentration
Description: as §1, §3

[7] = tested on: Candida albicans IFO 0583; assay: Antimicrobial spectrum, agar plate dilution method; assay type: cell-based; details: IFO0583, Nutrient agar containing 1% of glucose, read-out: Minimal inhibitory concentration
Description: as §1, §3

[8] = tested on: Aspergillus niger IFO 4066; assay: Antimicrobial spectrum, agar plate dilution method; assay type: cell-based; details: IFO4066, Nutrient agar containing 1% of glucose, read-out: Minimal inhibitory concentration
Description: as §1, §3

Escherichia coli NIHJ = assay: Antimicrobial spectrum, agar plate dilution method; assay type: cell-based; details: Trypticasesoy-broth-agar, read-out: Minimal inhibitory concentration
Description: as §1, §2

Escherichia coli T-7 = assay: Antimicrobial spectrum, agar plate dilution method; assay type: cell-based; details: T7, Trypticasesoy-broth-agar, read-out: Minimal inhibitory concentration
Description: as §1, §2

[9] = tested on: Pseudomonas aeruginosa U-31; assay: Antimicrobial spectrum, agar plate dilution method; assay type: cell-based; details: U31, Trypticasesoy-broth-agar, read-out: Minimal inhibitory concentration
Description: as §1, §2

[10] = tested on: Bacillus subtilis PCI 219; assay: Antimicrobial spectrum, agar plate dilution method; assay type: cell-based; details: PCI219, Trypticasesoy-broth-agar, read-out: Minimal inhibitory concentration
Description: as §1, §2

[11] = tested on: Proteus vulgaris IFO 3988; assay: Antimicrobial spectrum, agar plate dilution method; assay type: cell-based; details: IFO3988, Trypticasesoy-broth-agar, read-out: Minimal inhibitory concentration
Description: as §1, §2

Klebsiella pneumoniae DT = assay: Antimicrobial spectrum, agar plate dilution method; assay type: cell-based; details: Trypticasesoy-broth-agar, read-out: Minimal inhibitory concentration
Description: as §1, §2

[12] = tested on: Corynebacterium diphtheriae Toronto; assay: Antimicrobial spectrum, agar plate dilution method; assay type: cell-based; details: Trypticasesoy-broth-agar, read-out: Minimal inhibitory concentration
Description: as §1, §2

[13] = tested on: Proteus mirabilis IFO 3849; assay: Antimicrobial spectrum, agar plate dilution method; assay type: cell-based; details: IFO3849, Trypticasesoy-broth-agar, read-out: Minimal inhibitory concentration
Description: as §1, §2

[14] = tested on: Streptococcus pyogenes E-14; assay: Antimicrobial spectrum, agar plate dilution method; assay type: cell-based; details: E14, Trypticasesoy-broth-agar, read-out: Minimal inhibitory concentration
Description: as §1, §2

[15] = tested on: Staphylococcus aureus FDA 209P; assay: Antimicrobial spectrum, agar plate dilution method; assay type: cell-based; details: FDA209P, Trypticasesoy-broth-agar, read-out: Minimal inhibitory concentration
Description: as §1, §2

[16] = tested on: Serratia marcescens IFO 12648; assay: Antimicrobial spectrum, agar plate dilution method; assay type: cell-based; details: IFO12648, Trypticasesoy-broth-agar, read-out: Minimal inhibitory concentration
Description: as §1, §2

Shigella flexneri EW-10 = assay: Antimicrobial spectrum, agar plate dilution method; assay type: cell-based; details: EW10, Trypticasesoy-broth-agar, read-out: Minimal inhibitory concentration
Description: as §1, §2

[17] = tested on: Proteus morganii IFO 3168; assay: Antimicrobial spectrum, agar plate dilution method; assay type: cell-based; details: Morganella morganii, IFO3168, Trypticasesoy-broth-agar, read-out: Minimal inhibitory concentration
Description: as §1, §2

Escherichia coli = assay: Protection of mice infected with Escherichia coli; assay type: in vivo
[18] = Basicity, neutrality or acidity; assay type: physicochemical
gram-positive bacteria = assay: Antimicrobial spectrum, summary in words; assay type: cell-based; details: summary of Table 3
Description: as §1

gram-negative bacteria = assay: Antimicrobial spectrum, summary in words; assay type: cell-based; details: summary of Table 3
Description: as §1

[19] = listed as sodium salt of G-6302

COC1(NC(=O)C(C)NC(=O)CCC(N)C(=O)O)CN(S(=O)(=O)O)C1=O (stereo not drawn) [G-6302 . Na]
Solubility in acetone (Solubility in solvents; [19]): Insoluble
Solubility in methanol (Solubility in solvents; [19]): sparingly soluble
acute toxicity [1]: low
MIC [2]: 12.5 mg/L (≈ 31.5 µM)
deaths [3]: no deaths

COC1(NC(=O)C(C)NC(=O)CCC(N)C(=O)O)CN(S(=O)(=O)O)C1=O (stereo not drawn) [Antibiotic G-6302]
Solubility in acetone (Solubility in solvents): sparingly soluble
Solubility in benzene (Solubility in solvents; benzene): Insoluble
Solubility in chloroform (Solubility in solvents; chloroform): Insoluble
Solubility in diethyl ether (Solubility in solvents; diethyl ether): Insoluble
Solubility in dimethylsulfoxide (Solubility in solvents; dimethylsulfoxide): soluble
Solubility in ethanol (Solubility in solvents; ethanol): sparingly soluble
Solubility in ethyl acetate (Solubility in solvents; ethyl acetate): Insoluble
Solubility in hexane (Solubility in solvents; hexane): Insoluble
Solubility in methanol (Solubility in solvents): soluble
Solubility in petroleum ether (Solubility in solvents; petroleum ether): Insoluble
Solubility in pyridine (Solubility in solvents; pyridine): sparingly soluble
Solubility in water (Solubility in solvents; water): readily soluble
Stability over pH 8.5 ([4]; over pH 8.5): unstable
Stability in aqueous solution ([4]; pH 3-pH 7, 60° C., 10 minutes): Stable
protecting action on infected mice (Klebsiella pneumoniae; oral dose of 100 mg/kg): protecting action
protecting action on infected mice (Klebsiella pneumoniae; subcutaneous dose of 10 mg/kg): protecting action
MIC [5]: > 100 mg/L
MIC [6]: > 100 mg/L
MIC [7]: > 100 mg/L
MIC [8]: > 100 mg/L
MIC (Escherichia coli NIHJ): 25 mg/L (≈ 63.1 µM)
MIC (Escherichia coli T-7): 25 mg/L (≈ 63.1 µM)
MIC [9]: > 100 mg/L
MIC [10]: 100 mg/L (≈ 252 µM)
MIC [11]: 100 mg/L (≈ 252 µM)
MIC (Klebsiella pneumoniae DT): 12.5 mg/L (≈ 31.5 µM)
MIC [12]: 12.5 mg/L (≈ 31.5 µM)
MIC [13]: 25 mg/L (≈ 63.1 µM)
MIC [14]: > 100 mg/L
MIC [15]: > 100 mg/L
MIC [16]: 100 mg/L (≈ 252 µM)
MIC (Shigella flexneri EW-10): 25 mg/L (≈ 63.1 µM)
MIC [17]: 100 mg/L (≈ 252 µM)
protecting action on infected mice (Escherichia coli; oral dose of 100 mg/kg): protecting action
protecting action on infected mice (Escherichia coli; subcutaneous dose of 10 mg/kg): protecting action
Basicity, neutrality or acidity [18]: Acid
antimicrobial activity against gram-positive bacteria (gram-positive bacteria): inhibitory
antimicrobial activity against gram-positive bacteria (gram-positive bacteria; listed as Antibiotic G-6302): also active against some gram-positive bacteria
antimicrobial activity against gram-negative bacteria (gram-negative bacteria): inhibitory
antimicrobial activity against gram-negative bacteria (gram-negative bacteria; listed as Antibiotic G-6302): mainly active against gram-negative bacteria

COC1(NC(=O)C(C)NC(=O)CCC(N)C(=O)O)CN(S(=O)(=O)O)C1=O (stereo not drawn) [crystals of G-6302]
solubility in solvents (compared with product of Example 1) (Solubility in solvents; crystals of Example 5): the same as those of the product obtained in Example 1
stability (compared with product of Example 1) ([4]; crystals of Example 5): the same as those of the product obtained in Example 1
basicity, neutrality or acidity (compared with product of Example 1) ([18]; crystals of Example 5): the same as those of the product obtained in Example 1
